Laboratory results published in ChEMBL document CHEMBL3507680, “University of Dundee, Gates Library screen for HepG2 cell viability”.

Assay: Human HepG2 cell viability assay in 384 well format
Assay type: toxicity, cell-based
Design: dose 125 nL, time 70.5 hour; concentration not given beside the values
Conditions: HepG2 cells, read-out: Inhibition

SMILES	cytotoxicity at 70.5 h [%]
CN(C(=O)c1cccc(C#N)c1)c1nnc(C2CCOC2)s1 (configuration not stated)	-7.42
Cc1cccc(-c2nccnc2C2CCCN(C)C2)c1 (configuration not stated)	-2.49
COCC(=O)N1CCCC1(C(=O)N(C)C)c1cnccn1 (configuration not stated)	-4.12
C=C(C)Cn1nc(C)c(CN2CCN(C3CCCCC3)C(=O)C2)c1C	1.66
Cc1nc(-c2ccnn2C)cc(C2CCCN(S(C)(=O)=O)C2)n1 (configuration not stated)	-6.24
CNc1ccc(C2CN(c3nc(C)cc(C)n3)CCO2)nc1 (configuration not stated)	-2.83
CC(=O)N1CCCC1CCc1ccnc(-c2cncnc2)c1 (configuration not stated)	-2.53
CCOc1ccc(CN2CCOCC2c2[nH]ncc2C)cc1CO (configuration not stated)	-2.3
CNC(=O)C1(C)CN(S(=O)(=O)c2cccc(OC)c2)CCO1 (configuration not stated)	22.5
O=C(Cn1cccn1)N1CCC(c2nnc(-c3ccsc3)o2)CC1	-4.75
CNc1ccc(C2CN(c3cc(C)nc(N)n3)CCO2)nc1 (configuration not stated)	-2.26
CC1CCN(c2ncc(-c3ccccc3F)c(-c3nccn3C)n2)CC1	-2.25
CC(C)NC(=O)C1(Cc2ccccc2-c2cncnc2)CCCNC1 (configuration not stated)	-4.61
COc1cccc(S(=O)(=O)N2CCOC(C)(C(N)=O)C2)c1 (configuration not stated)	-3.76
Cc1nc2cc(C3CCOCC3)nn2c(NCC2COCCO2)c1C (configuration not stated)	20.9
O=C(c1cnco1)N1CCC(Cc2ccc3ncccc3c2)CC1	5.02
CN1CCc2nc(C3CCCN(S(=O)(=O)N4CCCC4)C3)ncc2C1 (configuration not stated)	0.156
CN(C)C(=O)c1cncnc1-c1ccc(CNC(=O)C2CC2)cc1	-11.4
CC(NC(=O)C1CC1)c1cc(O)nc(-c2cccnc2)n1 (configuration not stated)	26.9
CS(=O)(=O)N1CCCCCC1c1cc(-c2ccc(F)cc2)no1 (configuration not stated)	5.67
CN1C[C@]2(CC[C@@H](C(=O)O)CC2)Oc2ccccc2C1=O	-6.54

SMILES	cytotoxicity at 70.5 h [%]
CCCC(=O)NCCc1nc2cc(-c3ccc(OC)cc3)ncn2n1	-8.47
Cc1ccc(CN2CCOCC2c2[nH]ncc2C)cn1 (configuration not stated)	-7.81
Cc1cn[nH]c1C1COCCN1Cc1cscn1 (configuration not stated)	-13.2
CC1(c2ncc(CN3CCN(c4ncccn4)CC3)cn2)CCCCO1 (configuration not stated)	-9.22
COc1ccc(CCc2nnc(NC(=O)C3CC34CCC4)s2)cc1OC (configuration not stated)	-8.17
CCc1nnc(Nc2cc(C)nc(C3CN(C(C)=O)CCO3)c2)s1 (configuration not stated)	0.483
CS(=O)(=O)N1CCCC1c1ccnc2nccn12 (configuration not stated)	-12.2
Cc1noc(C)c1-c1cccc(C2CCN(S(=O)(=O)N(C)C)CC2)n1	2.89
Cc1ncc(C(=O)N2CCOC(C(=O)N3CCCCC3)C2)c(C)n1 (configuration not stated)	-3.05
Cc1cccc(C2(CNC(=O)c3ccnc(N(C)C)c3)CCOCC2)c1	15.5
Cc1onc(-c2ccncc2)c1C(=O)NC1CCCOC1 (configuration not stated)	-9.07
CC(C)(C)C(=O)NCCc1cc(N2CCOCC2)nc(NC2CC2)n1	-9.36
Cc1nonc1CNC(=O)C(C)Oc1cccc(F)c1 (configuration not stated)	-8.47
c1cnc(Nc2ccc(C3CCCCN3Cc3ccncc3)cn2)nc1 (configuration not stated)	-6.32
O=C(c1cscn1)N1CCc2[nH]nc(Nc3ccccc3)c2C1	-6.3
COCCNc1ccc(CC2CCCN(c3ncccn3)C2)nn1 (configuration not stated)	-1.21
Cc1nc(NCc2cccnc2)cc(C2COCCN2)n1 (configuration not stated)	-5.63
Cc1cncc(C2CCN(Cc3ccncc3)CC2)n1	-7.83
Cc1ccnc(C2(C)CCCN2S(=O)(=O)c2ccccc2)n1 (configuration not stated)	16.3
Cc1c(C(=O)N2CCC(C(=O)c3nc4ccccc4s3)CC2)cnn1C	-0.714
CN(C(=O)c1ccccn1)c1nnc(C2CCOC2)s1 (configuration not stated)	-7.71

SMILES	cytotoxicity at 70.5 h [%]
COc1cccc([C@@]2(O)CC[C@@H]3CN(C(=O)c4c[nH]nc4C)C[C@@H]32)c1	-6.08
Cc1nn(C)c(C)c1-c1ccc(=O)n(C(C)C(=O)NC2CC2)n1 (configuration not stated)	17.4
Cc1nn(C)c(C)c1-c1ccc(=O)n(C(C)C(=O)NC2CCCC2)n1 (configuration not stated)	-5.55
Cc1nc2cc(-c3nccn3C)nn2c(N2CCCC2)c1C	-0.486
CCc1cc(O)n2nc(C3CCCN3C(=O)c3ccccn3)cc2n1 (configuration not stated)	17
COc1cc(CCC(=O)N2CCC(c3cc4ncccc4[nH]3)CC2)on1	22
Cc1cc(N2CCC(O)CC2)nc(C2CCCN2C)n1 (configuration not stated)	-5.82
Cn1ccc2cc(CC3COCCN(C(=O)c4cccnc4)C3)ccc21 (configuration not stated)	11.9
O=C(Cn1c(=O)n(Cc2ccco2)c2ncccc21)NC1CC1	-4.4
CC1CCCCN1c1nc2c(c(=O)[nH]1)CCN(Cc1ccccn1)C2 (configuration not stated)	3.45
COc1cnc(C2(O)CCN(C(=O)c3ccccn3)CC2)c(OC)n1	-13.1
COc1cnc(C2(O)CCN(C(=O)c3scnc3C)CC2)c(OC)n1	6.58
CC(C)c1nccn1-c1cncc(C2CCCN(C3CCCCC3)C2)n1 (configuration not stated)	-0.366
CCc1nccn1-c1cccc(C2CCCN(C3CCCCC3)C2)n1 (configuration not stated)	-0.595
COCC(=O)N1CCN(c2cc(C)nc(C3CCCN3C(C)=O)c2)CC1 (configuration not stated)	-0.659
Cc1nccn1-c1cccc(C2CCCN(C3CCCC3)C2)n1 (configuration not stated)	-4.43
Cc1cc2cc(C(=O)N3C[C@H](O)[C@]4(CCCO4)C3)ccc2o1	-2.18
COc1ccccc1CC(=O)N1CC[C@H](O)[C@]2(CCCO2)C1	-6.73
C[C@]1(O)CN(Cc2ncccc2F)CC[C@@H]1Oc1cccc(F)c1	-5.53
COc1cc(CN2C[C@H](OC)[C@]3(CCCO3)C2)ccc1F	19.1
Cc1cccc(CC2COCCN(Cc3nccn3C)C2)n1 (configuration not stated)	-2.76

SMILES	cytotoxicity at 70.5 h [%]
CNC(=O)C1CN(C(=O)COc2ccccc2)Cc2cn(C)nc21 (configuration not stated)	-3.29
O=C(c1c[nH]c(=O)[nH]c1=O)N1CCCC(c2cnccn2)C1 (configuration not stated)	-2.78
C[C@]1(O)CN(CCC(N)=O)CC[C@@H]1Oc1cccc(F)c1	-0.798
Cc1cncc(C2CCCN(C(=O)c3cn(C)nc3C)C2)n1 (configuration not stated)	-3.29
Cc1csc(C(=O)N2CCCC(c3[nH]ncc3S(C)(=O)=O)C2)c1 (configuration not stated)	-0.679
Cc1cncc(C2CCCN(Cc3ccncc3)C2)n1 (configuration not stated)	13.6
CC(=O)N1CCCC(Cc2nccn2C)C1 (configuration not stated)	-5.45
O=C(COc1cccc(F)c1)N1C[C@@H](O)[C@H](N2CCOCC2)C1	-5.2
Cc1cccc(C2CCCN2S(=O)(=O)N(C)C)n1 (configuration not stated)	-2.59
Cc1c[nH]nc1C1CCCCN1C(=O)CCn1nccc1C (configuration not stated)	11.5
CO[C@H]1CN(Cc2ccccc2F)C[C@@]12CCCO2	-5.8
Cc1nc(N)c2ccc(C3CCCCN3)nc2n1 (configuration not stated)	-1.97
c1nc(N2CCOCC2)ncc1-c1cncn1CCCN1CCCCC1	-13.7
NC1CCc2nc(-c3cccnc3)nc(Nc3ccc(F)cc3)c2C1 (configuration not stated)	3.41
CC(=O)Nc1ccc(Oc2cc(C)nc(C3CCCNC3)c2)cc1 (configuration not stated)	-3.03
Cc1cc(Oc2ccc(NC(=O)C3CC3)cc2)cc(C2CCNCC2)n1	-4.04
NCCc1cc(N2CCOCC2)nc(NC2CC2)n1	-8.21
Cn1ccnc1CNC(=O)c1cncc(C2CCNCC2)n1	-5.18
COc1ccccc1C(=O)N1CCCC1c1ncc2c(n1)CCNC2 (configuration not stated)	-2.07
